Test results from PMC11483378, “Triazole-Based Thiamine Analogues as Inhibitors of Thiamine Pyrophosphate-Dependent Enzymes: 1,3-Dicarboxylate for Metal Binding” (ACS Omega, 2024).
Values joined by “and” are separate entries in the source; they are usually repeats but may differ in a detail not shown here. Identical values can stand only once. Like-named read-outs stand apart in the source and are kept apart here.

Key:
S. cerevisiae PDC = molecular target: T1, S. cerevisiae PDC (Saccharomyces cerevisiae, UniProt P06169); experiment: S. cerevisiae PDC inhibitory activity assay (DCPIP reduction); format: biochemical; details: for % Inhibition (5:1): [Compound] = 750 μM, [TPP] = 150 μM; for inhibition at 750 µM: [Compound] = [TPP] = 750 μM, read-out: % Inhibition (1:1)
T1 construct: purchased Sigma
T1 sequence (P06169 2-563 limits assumed): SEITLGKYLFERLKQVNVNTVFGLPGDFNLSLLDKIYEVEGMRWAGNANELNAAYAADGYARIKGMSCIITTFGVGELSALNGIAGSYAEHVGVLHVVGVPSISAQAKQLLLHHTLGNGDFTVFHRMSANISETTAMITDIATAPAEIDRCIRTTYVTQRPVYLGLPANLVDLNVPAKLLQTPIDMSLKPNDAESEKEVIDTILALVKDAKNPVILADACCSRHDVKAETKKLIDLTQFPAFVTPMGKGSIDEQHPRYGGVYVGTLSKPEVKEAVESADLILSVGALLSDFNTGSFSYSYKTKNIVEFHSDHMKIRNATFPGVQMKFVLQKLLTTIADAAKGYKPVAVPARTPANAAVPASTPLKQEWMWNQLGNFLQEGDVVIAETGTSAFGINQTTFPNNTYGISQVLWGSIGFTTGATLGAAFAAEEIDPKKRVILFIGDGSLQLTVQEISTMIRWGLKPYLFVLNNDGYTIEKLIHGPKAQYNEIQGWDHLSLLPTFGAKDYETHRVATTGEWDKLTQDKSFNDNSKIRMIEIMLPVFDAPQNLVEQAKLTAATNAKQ
Experimental: S. cerevisiae PDC was purchased from Sigma. S. cerevisiae PDC activity was determined by monitoring DCPIP reduction at 600 nm using a microplate reader (CLARIOstar) and conducted as described[5] with some modifications. […] The reaction buffer (50 mM KH2PO4 and 1 mM MgCl2, pH 7) contained TPP at specified concentrations, 0.27 mM DCPIP, and 0.15 mg/mL S. cerevisiae PDC. The reaction mixture was preincubated at 37 °C with the inhibitor for 60 min, and then the reaction was initiated by adding pyruvate to a final concentration of 70 mM. […] Specific activity was calculated using the molar extinction coefficient of DCPIP, 21 mM^–1 cm^–1.[28] The IC50 values were calculated from nonlinear regression curve fitting using GraphPad Prism.
(§1) Enzyme inhibitory activity assays – methods and results (Figures S1-4) […]
(§2) The compound […]
S. cerevisiae PDC inhibitory activity assay. S. cerevisiae PDC was purchased from Sigma. S. cerevisiae PDC activity was determined by monitoring DCPIP reduction at 600 nm using a microplate reader (CLARIOstar) and conducted as described3 with some modifications. The percentage inhibition of compounds against S. cerevisiae PDC was assayed at 750 μM. The reaction buffer (50 mM KH 2PO4 and 1 mM MgCl2, pH 7) contained TPP at specified concentrations, 0.27 mM DCPIP, and 0.15 mg/ml S. cerevisiae PDC. The reaction mixture was preincubated at 37 °C with the inhibitor for 60 min, then reaction was initiated by adding pyruvate to a final concentration of 70 mM. To determine the IC50, TPP concentration was set at 150 µM with varying inhibitor concentrations. Specific activity was […]
calculated from non-linear regression curve fitting using GraphPad Prism. […]

A. viridans PO = A. viridans PO (Aerococcus viridans, UniProt A9X9K8); experiment: A. viridans PO inhibitory activity assay (quinoneimine dye); format: biochemical
Experimental: A. viridans PO and horseradish peroxidase were purchased from Sigma. A. viridans PO activity was determined by monitoring appearance of quinoneimine dye at 550 nm using a microplate reader (CLARIOstar) and conducted as described[5] with some modifications. […] The reaction buffer (50 mM KH2PO4 and 10 mM MgCl2, pH 5.9) contained TPP at specified concentrations, 10 μM flavin adenine dinucleotide, 0.15% 4-aminoantipyrine, 0.3% N-ethyl-N-(2-hydroxy-3-sulfopropyl)-m-toluidine (EHSPT), 50 μg/mL horseradish peroxidase, and 0.35 U/mL A. viridans PO. The reaction mixture was preincubated at 37 °C with inhibitor for 30 min, and then the reaction was initiated by adding pyruvate to a final concentration of 50 mM. To determine the IC50, TPP concentration was set at 60 μM with varying inhibitor concentrations. One unit of PO activity is defined as the production of 1 μmol of hydrogen peroxide per minute. The IC50 values were calculated from nonlinear regression curve fitting using GraphPad Prism.
as §1, §2
A. viridans PO inhibitory activity assay. A. viridans PO and horseradish peroxidase were purchased from Sigma. A. viridans PO activity was determined by monitoring appearance of quinoneimine dye at 550 nm using a microplate reader (CLARIOstar) and conducted as described3 with some modifications. […]
buffer (50 mM KH2PO4 and 10 mM MgCl2, pH 5.9) contained TPP at specified concentrations, 10 µM flavin adenine dinucleotide (FAD), 0.15% 4-aminoantipyrine, 0.3% N-ethyl-N-(2-hydroxy-3-sulfopropyl)-m-toluidine (EHSPT), 50 µg/mL horseradish peroxidase and 0.35 U/mL A. viridans PO. The reaction mixture was preincubated at 37 °C with inhibitor for 30 min, then reaction was initiated by adding pyruvate to a final concentration of 50 mM. To determine the IC50, TPP concentration was set was set at 60 µM with varying inhibitor concentrations. One unit of PO activity is defined as the production of 1 μmol of hydrogen peroxide per minute. The IC 50 values were calculated from non-linear regression curve fitting using GraphPad Prism. […]

[1] = [Compound] = 250 μM, [TPP] = 50 μM
[2] = [Compound] = [TPP] = 250 μM; read-out: % Inhibition (1:1)
[3] = [TPP] = 60 µM; read-out: IC50 (μM ± SEM)
[4] = calculated from KM(TPP) 5 µM using [TPP]/IC50 = KM(TPP)/KI; read-out: KI
[5] = calculated from KM(TPP) 15 µM using [TPP]/IC50 = KM(TPP)/KI
[6] = read-out: IC50 (μM ± SEM), [TPP] = 150 µM
[7] = calculated from KM(TPP) 5 µM using [TPP]/IC50 = KM(TPP)/KI
[8] = read-out: IC50 (μM ± SEM); [TPP] = 60 µM

Sequence of A. viridans PO (A9X9K8 entry or part of it): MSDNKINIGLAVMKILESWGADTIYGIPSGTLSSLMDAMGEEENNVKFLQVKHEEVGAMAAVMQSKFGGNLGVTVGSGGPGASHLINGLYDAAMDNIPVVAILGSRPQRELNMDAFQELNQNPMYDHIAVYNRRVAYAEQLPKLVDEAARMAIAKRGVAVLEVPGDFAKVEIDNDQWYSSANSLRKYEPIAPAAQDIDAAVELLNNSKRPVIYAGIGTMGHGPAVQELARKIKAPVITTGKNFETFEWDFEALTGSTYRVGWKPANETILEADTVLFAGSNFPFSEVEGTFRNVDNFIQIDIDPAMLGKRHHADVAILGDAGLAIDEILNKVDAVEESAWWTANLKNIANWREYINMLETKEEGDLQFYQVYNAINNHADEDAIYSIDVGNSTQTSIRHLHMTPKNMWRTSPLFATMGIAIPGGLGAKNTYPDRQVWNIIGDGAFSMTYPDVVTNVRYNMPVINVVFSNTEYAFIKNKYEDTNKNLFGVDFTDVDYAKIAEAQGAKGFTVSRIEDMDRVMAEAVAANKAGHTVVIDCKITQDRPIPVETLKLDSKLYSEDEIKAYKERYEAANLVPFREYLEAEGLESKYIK

SMILES | IC50 (S. cerevisiae PDC) [µM] | Ki (S. cerevisiae PDC) [µM] | % Inhibition (5:1) (S. cerevisiae PDC) [%] | inhibition at 750 µM (S. cerevisiae PDC) [%] | vs TPP: affinity of the compound relative to that of TPP (= [TPP]/IC50) (S. cerevisiae PDC; [TPP] = 150 µM) | % Inhibition (5:1) (A. viridans PO; [1]) [%] | inhibition at 250 µM (A. viridans PO; [2]) [%] | vs TPP: affinity of the compound relative to that of TPP (= [TPP]/IC50) (A. viridans PO; [TPP] = 60 µM) | IC50 (A. viridans PO; [3]) [µM] | Ki (A. viridans PO; [4]) [µM] | Ki (S. cerevisiae PDC; [5]) [µM] | IC50 (S. cerevisiae PDC; [6]) [µM] | Ki (A. viridans PO; [7]) [µM] | IC50 (A. viridans PO; [8]) [µM]
COC(=O)C(CCc1cn(Cc2cnc(C)nc2N)nn1)C(=O)OC [13a] | 939 ± 167 | 94 | 40 ± 4 | < 20 | 0.16 | 62 ± 4 | 26 ± 4 | 0.32 | 189 ± 44 | 16 | – | – | – | –
COC(=O)C(CCCc1cn(Cc2cnc(C)nc2N)nn1)C(=O)OC [13b] | 713 ± 139 | 71 | 52 ± 3 | 21 ± 5 | 0.21 | 65 ± 5 | 29 ± 4 | 0.39 | 152 ± 24 | 13 | – | – | – | –
Cc1ncc(Cn2cc(CCC(C(=O)[O-])C(=O)[O-])nn2)c(N)n1.[K+].[K+] [14a] | – | – | 70 ± 2 | 31 ± 3 | 0.47 | 76 ± 3 | 41 ± 3 | 0.69 | – | – | 32 | 319 ± 57 | 7.3 | 87 ± 11
Cc1ncc(Cn2cc(CCCC(C(=O)[O-])C(=O)[O-])nn2)c(N)n1.[K+].[K+] [14b] | – | – | 79 ± 3 | 42 ± 3 | 0.7 and 0.71 | 85 ± 4 | 55 ± 4 | 1.22 | – | – | 21 | 211 ± 39 | 4.1 | 49 ± 7
COC(=O)CCCc1cn(Cc2cnc(C)nc2N)nn1 [15a] | 883 ± 144 | 88 | 42 ± 3 | < 20 | 0.17 | 52 ± 3 | 21 ± 4 | 0.22 | 274 ± 52 | 23 | – | – | – | –
COC(=O)CCCCc1cn(Cc2cnc(C)nc2N)nn1 [15b] | 789 ± 167 | 79 | 47 ± 4 | < 20 | 0.19 | 59 ± 3 | 24 ± 4 | 0.28 | 214 ± 31 | 18 | – | – | – | –
Cc1ncc(Cn2cc(CCCC(=O)[O-])nn2)c(N)n1.[K+] [16a] | – | – | 55 ± 4 | 24 ± 4 | 0.26 | 59 ± 3 | 22 ± 5 | 0.30 | – | – | 58 | 582 ± 88 | 17 | 202 ± 34
Cc1ncc(Cn2cc(CCCCC(=O)[O-])nn2)c(N)n1.[K+] [16b] | – | – | 60 ± 4 | 25 ± 5 | 0.30 | 63 ± 3 | 28 ± 4 | 0.35 | – | – | 50 | 503 ± 76 | 14 | 171 ± 29
